Data on 24 compounds can be found in US11464770B2, “Anticancer pharmaceutical composition” (NATIONAL CANCER CENTER, priority 2016, dated 2022).

Assay [1] concerns bladder cancer cell lines. Briefly: Cell based assay, cell viability (CellTiter-Glo), bladder cancer cell lines. To be noted: 72 hours treatment, 0 to 2 μM, CellTiter-Glo. The essentials:
(§1)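 Each commercial line was plated and allowed 24 h to settle at constant temperature. Compound exposure ran 72 h at final concentrations spanning 0 to 2 μM. Cell viability was then determined by luminescent ATP detection.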
(In general: ATP-based viability assays read luminescence as a measure of living cells.)

In assay [2] the test system is melanoma cell lines. Kind of assay: Cell based assay, cell viability (CellTiter-Glo), melanoma cell lines. To be noted: Homo sapiens; LOX-IMVI cell line. In short, it runs like this: as §1
In assay [3] the test system is cervical carcinoma cell lines. Kind of assay: Cell based assay, cell viability (CellTiter-Glo), cervical carcinoma cell lines. To be noted: Homo sapiens; HeLa cells.
Where [4] appears, read: 5637 cells, read-out: IC50, bladder cancer cell line 5637.
[5] abbreviates: Homo sapiens, T-24, T24 cells, read-out: IC50, bladder cancer cell line T24.
Setting [6] is: Homo sapiens, J82 cells, read-out: IC50, bladder cancer cell line J82.
Setting [7] is: Homo sapiens, KU-19-19 cells, read-out: IC50, bladder cancer cell line KU-19-19.

Like-named read-outs stand apart in the source and are kept apart here.

For `CC(=O)c1c([S+]([O-])Cc2ccc(F)cc2F)[nH]c2c(Br)ccc(Cl)c2c1=O` (stereo not drawn) [Compound 29, 3-acetyl-8-bromo-5-chloro-2-((2,4-difluorobenzyl)sulfinyl)quinolin-4(1H)-one], the IC50 – broadly, the midpoint of a concentration-inhibition curve – in assay [1] (setting [4]) was 1330 nM; in assay [1] (setting [5]), 1090 nM; in assay [1] (setting [6]), greater than 2000 nM; in assay [2] it was 1240 nM; in assay [3], greater than 10000 nM.
For `CC(=O)c1c([S+]([O-])Cc2ccc(F)c(Cl)c2)[nH]c2c(Br)ccc(Cl)c2c1=O` (stereo not drawn) [Compound 31, 3-acetyl-8-bromo-5-chloro-2-((3-chloro-4-fluorobenzyl)sulfinyl)quinolin-4(1H)-one] the same measures were 1230 nM, 1120 nM, 1380 nM, 1110 nM and greater than 10000 nM.
On to `CC(=O)c1c([S+]([O-])Cc2ccc([N+](=O)[O-])cc2)[nH]c2c(Br)ccc(Cl)c2c1=O` (stereo not drawn) [Compound 33, 3-acetyl-8-bromo-5-chloro-2-((4-nitrobenzyl)sulfinyl)quinolin-4(1H)-one], for which the IC50 in assay [1] (setting [4]) was greater than 2000 nM; in assay [1] (setting [5]) it was 1030 nM; in assay [1] (setting [6]), greater than 2000 nM; in assay [2] it was 1130 nM; in assay [3], greater than 10000 nM.
As for `CC(=O)c1c(S(=O)(=O)Cc2ccccc2)[nH]c2c(Br)ccc(Cl)c2c1=O` [Compound 34, 3-acetyl-2-(benzylsulfonyl)-8-bromo-5-chloroquinolin-4(1H)-one], the IC50 in assay [1] (setting [4]) was greater than 2000 nM; in assay [1] (setting [5]) it was greater than 2000 nM; in assay [1] (setting [6]), greater than 2000 nM; in assay [2], 1630 nM; in assay [3] it was greater than 10000 nM.
Take `CC(=O)c1c([S+]([O-])Cc2cc(Cl)ccc2Cl)[nH]c2c(Br)ccc(Cl)c2c1=O` (stereo not drawn) [Compound 44, 3-acetyl-8-bromo-5-chloro-2-((2,5-dichlorobenzyl)sulfinyl)quinolin-4(1H)-one]: the IC50 in assay [1] (setting [4]) is 1350 nM; in assay [1] (setting [5]), 920 nM; in assay [1] (setting [6]) it was 2070 nM; in assay [2], 1640 nM; in assay [3], greater than 10000 nM.
As for `CC(=O)c1c([S+]([O-])Cc2cc(F)cc(F)c2)[nH]c2c(Br)ccc(Cl)c2c1=O` (stereo not drawn) [Compound 46, 3-acetyl-8-bromo-5-chloro-2-((3,5-difluorobenzyl)sulfinyl)quinolin-4(1H)-one], the IC50 in assay [1] (setting [4]) is 1770 nM; in assay [1] (setting [5]), 1570 nM; in assay [1] (setting [6]) it was greater than 2000 nM; in assay [2], 1570 nM; in assay [3], greater than 10000 nM.
As to `CC(=O)c1c([S+]([O-])Cc2cccc(F)c2)[nH]c2c(Br)ccc(Cl)c2c1=O` (stereo not drawn) [Compound 50, 3-acetyl-8-bromo-5-chloro-2-((3-fluorobenzyl)sulfinyl)quinolin-4(1H)-one], the half-inhibitory concentration (IC50) in assay [1] (setting [4]) is 1470 nM; in assay [1] (setting [6]), greater than 2000 nM; in assay [2], 1510 nM; in assay [3], greater than 10000 nM.
`CC(=O)c1c([S+]([O-])Cc2cc(C)on2)[nH]c2c(Br)ccc(Cl)c2c1=O` (stereo not drawn) [Compound 51, 3-acetyl-8-bromo-5-chloro-2-(((5-methylisoxazol-3-yl)methyl)sulfinyl)quinolin-4(1H)-one]: the half-inhibitory concentration (IC50) in assay [1] (setting [4]) was 1070 nM; in assay [1] (setting [5]), 890 nM; in assay [1] (setting [6]), greater than 2000 nM; in assay [2], 1460 nM; in assay [3], greater than 10000 nM.
Consider `COc1cccc(C[S+]([O-])c2[nH]c3c(Br)ccc(Cl)c3c(=O)c2C(C)=O)c1` (stereo not drawn) [Compound 55, 3-acetyl-8-bromo-5-chloro-2-((3-methoxybenzyl)sulfinyl)quinolin-4(1H)-one], for which the IC50 in assay [1] (setting [4]) is greater than 2000 nM; in assay [1] (setting [5]), 1540 nM; in assay [1] (setting [6]), greater than 2000 nM; in assay [2], 1620 nM; in assay [3] it was greater than 10000 nM.
Regarding `CC(=O)c1c([S+]([O-])Cc2ccc(SC(F)(F)F)cc2)[nH]c2c(Br)ccc(Cl)c2c1=O` (stereo not drawn) [Compound 56, 3-acetyl-8-bromo-5-chloro-2-((4-((trifluoromethyl)thio)benzyl)sulfinyl)quinolin-4(1H)-one], the IC50 is greater than 2000 nM in assay [1] (setting [4]); 980 nM in assay [1] (setting [5]); 1460 nM in assay [1] (setting [6]); 900 nM in assay [1] (setting [7]); 1090 nM in assay [2]; greater than 2000 nM in assay [3].
In the case of `CC(=O)c1c([S+]([O-])Cc2ccc([N+](=O)[O-])cc2)[nH]c2c(Cl)ccc(Cl)c2c1=O` (stereo not drawn) [Compound 57, 3-acetyl-5,8-dichloro-2-((4-nitrobenzyl)sulfinyl)quinolin-4(1H)-one], the IC50 in assay [1] (setting [4]) is greater than 2000 nM; in assay [1] (setting [5]), 1790 nM; in assay [1] (setting [6]), greater than 2000 nM; in assay [2] it was greater than 2000 nM; in assay [3] it was greater than 10000 nM.
On to `COc1cc(C[S+]([O-])c2[nH]c3c(Br)ccc(Cl)c3c(=O)c2C(C)=O)cc(OC)c1` (stereo not drawn) [Compound 59, 3-acetyl-8-bromo-5-chloro-2-((3,5-dimethoxybenzyl)sulfinyl)quinolin-4(1H)-one], for which the IC50 in assay [1] (setting [4]) was greater than 2000 nM; in assay [1] (setting [5]), 1110 nM; in assay [1] (setting [6]), greater than 2000 nM; in assay [2] it was 1060 nM; in assay [3], greater than 10000 nM.
For `CC(=O)c1c([S+]([O-])Cc2ccc(C(C)(C)C)cc2)[nH]c2c(Br)ccc(Cl)c2c1=O` (stereo not drawn) [Compound 60, 3-acetyl-8-bromo-2-((4-(tert-butyl)benzyl)sulfinyl)-5-chloroquinolin-4(1H)-one], the half-maximal inhibitory concentration (IC50) in assay [1] (setting [4]) was greater than 2000 nM; in assay [1] (setting [5]), 1720 nM; in assay [1] (setting [6]) it was greater than 2000 nM; in assay [2], 1670 nM; in assay [3], greater than 10000 nM.
On to `CC(=O)c1c([S+]([O-])Cc2ccc([S+]([O-])C(F)(F)F)cc2)[nH]c2c(Br)ccc(Cl)c2c1=O` (stereo not drawn) [Compound 64, 3-acetyl-8-bromo-5-chloro-2-((4-((trifluoromethyl)sulfinyl)benzyl)sulfinyl)quinolin-4(1H)-one], for which the IC50 is 1520 nM in assay [1] (setting [4]); 1040 nM in assay [1] (setting [5]); 1960 nM in assay [1] (setting [6]); 1050 nM in assay [2]; greater than 10000 nM in assay [3].
Consider `CC(=O)c1c([S+]([O-])Cc2ccc(C(F)(F)F)cc2)[nH]c2c(Br)ccc(Cl)c2c1=O` (stereo not drawn) [Compound 70, 3-acetyl-8-bromo-5-chloro-2-((4-(trifluoromethyl)benzyl)sulfinyl)quinolin-4(1H)-one], for which the 50% inhibitory concentration (IC50) in assay [1] (setting [4]) was 1730 nM; in assay [1] (setting [5]), 1690 nM; in assay [1] (setting [6]), 1940 nM; in assay [2] it was 1190 nM; in assay [3], greater than 10000 nM.
On to `CC(=O)c1c([S+]([O-])Cc2ccc(OC(F)(F)F)cc2)[nH]c2c(Br)ccc(Cl)c2c1=O` (stereo not drawn) [Compound 71, 3-acetyl-8-bromo-5-chloro-2-((4-(trifluoromethoxy)benzyl)sulfinyl)quinolin-4(1H)-one], for which the 50% inhibitory concentration (IC50) in assay [1] (setting [4]) was 1510 nM; in assay [1] (setting [5]) it was 1390 nM; in assay [1] (setting [6]), 1980 nM; in assay [2], 1410 nM; in assay [3], greater than 10000 nM.
`CC(=O)c1c([S+]([O-])Cc2ccc(C(F)(F)F)o2)[nH]c2c(Br)ccc(Cl)c2c1=O` (stereo not drawn) [Compound 72, 3-acetyl-8-bromo-5-chloro-2-(((5-(trifluoromethyl)furan-2-yl)methyl)sulfinyl)quinolin-4(1H)-one]: the IC50 in assay [1] (setting [4]) was 1640 nM; in assay [1] (setting [5]), 1250 nM; in assay [1] (setting [6]) it was 1630 nM; in assay [2], 920 nM; in assay [3], greater than 2000 nM.
With `CC(=O)c1c([S+]([O-])Cc2ccc(C#N)cc2)[nH]c2c(Br)ccc(Cl)c2c1=O` (stereo not drawn) [Compound 73, 4-(((3-acetyl-8-bromo-5-chloro-4-oxo-1,4-dihydroquinolin-2-yl)sulfinyl)methyl)benzonitrile], the half-maximal inhibitory concentration (IC50) in assay [1] (setting [4]) is greater than 2000 nM; in assay [1] (setting [6]), greater than 2000 nM; in assay [1] (setting [7]), greater than 2000 nM; in assay [2] it was 1670 nM; in assay [3] it was greater than 10000 nM.
Turning to `CC(=O)c1c([S+]([O-])Cc2c(F)cccc2Cl)[nH]c2c(Br)ccc(Cl)c2c1=O` (stereo not drawn) [Compound 74, 3-acetyl-8-bromo-5-chloro-2-((2-chloro-6-fluorobenzyl)sulfinyl)quinolin-4(1H)-one], the IC50 in assay [1] (setting [4]) is 1600 nM; in assay [1] (setting [5]), 1070 nM; in assay [1] (setting [6]), greater than 2000 nM; in assay [2], 1260 nM; in assay [3], greater than 10000 nM.
On the same counts, the results for `COc1cc(S(F)(F)(F)(F)F)ccc1C[S+]([O-])c1[nH]c2c(Br)ccc(Cl)c2c(=O)c1C(C)=O` (stereo not drawn) [Compound 75, 3-acetyl-8-bromo-5-chloro-2-((2-methoxy-4-(pentafluoro--sulfanyl)benzyl)sulfinyl)quinolin-4(1H)-one] are 1570 nM, 1330 nM, 1480 nM, 1040 nM and greater than 10000 nM.
For `CC(=O)c1c([S+]([O-])Cc2cc(F)cc(S(F)(F)(F)(F)F)c2)[nH]c2c(Br)ccc(Cl)c2c1=O` (stereo not drawn) [Compound 76, 3-acetyl-8-bromo-5-chloro-2-((3-fluoro-5-(pentafluoro--sulfanyl)benzyl)sulfinyl)quinolin-4(1H)-one] the same measures were greater than 2000 nM, 1790 nM, greater than 2000 nM, 1370 nM and greater than 10000 nM.
On to `CC(=O)c1c([S+]([O-])Cc2c(F)c(F)c(F)c(F)c2F)[nH]c2c(Br)ccc(Cl)c2c1=O` (stereo not drawn) [Compound 78, 3-acetyl-8-bromo-5-chloro-2-(((perfluorophenyl)methyl)sulfinyl)quinolin-4(1H)-one], for which the IC50 in assay [1] (setting [4]) was greater than 2000 nM; in assay [1] (setting [5]) it was 1800 nM; in assay [1] (setting [6]), greater than 2000 nM; in assay [2], 1370 nM; in assay [3], greater than 10000 nM.
For the compound `CC(=O)c1c([S+]([O-])Cc2ccc(I)cc2)[nH]c2c(Cl)ccc(Cl)c2c1=O` (stereo not drawn) [Compound 83, 3-acetyl-5,8-dichloro-2-((4-iodobenzyl)sulfinyl)quinolin-4(1H)-one], the IC50 in assay [1] (setting [4]) was 1370 nM; in assay [1] (setting [5]) it was 1500 nM; in assay [1] (setting [6]) it was greater than 2000 nM; in assay [2], 1570 nM; in assay [3], greater than 10000 nM.
For the compound `CC(=O)c1c([S+]([O-])Cc2cccnc2)[nH]c2c(Br)ccc(Cl)c2c1=O` (stereo not drawn) [Compound 84, 3-acetyl-8-bromo-5-chloro-2-((pyridin-3-ylmethyl)sulfinyl)quinolin-4(1H)-one], the concentration for half-maximal inhibition (IC50) in assay [1] (setting [4]) was greater than 2000 nM; in assay [1] (setting [5]) it was 1030 nM; in assay [1] (setting [6]), greater than 2000 nM; in assay [2], 1450 nM; in assay [3], greater than 10000 nM.
